Values of other authors as cited in paper PMC10707982, “Solubility and Thermodynamics Data of Cabozantinib Malate in Various Aqueous Solutions of Dimethyl Sulfoxide at Different Temperatures” (Molecules, 2023).

Set-up: method as in doi:10.1016/j.molliq.2020.115146
Conditions: neat solvent; cited from earlier work

SMILES | HSP of neat solvent (δ1, δ2) [MPa^1/2]
C[S+](C)[O-] [DMSO, dimethyl sulfoxide] | 23.60
O [H2O, water] | 47.80
